Data as given in patent US12626779B2, “Determining a targeted therapy using virtual inference of protein activity by regulon enrichment analysis of an individual subject tissue sample” (The Trustees of Columbia University in the City of New York, priority 2015, dated 2026).
Several values for one entry are separate records, joined by “and”; a condition that tells them apart may be missing. Equal entries are not always repeated. Where two headings read alike, the source gives them in different places.

Tested on: lung adenocarcinoma cell lines
Text: FIG. 7A illustrates the probability density for the nonmutated (salmon) and mutated (green) samples based on MPS for six actionable mutations (complete list in FIGS. 21A-21F). Right plots show MPS (v axis) for all samples rank-sorted by MPS; green vertical lines indicate the mutated samples. MPS-defined WT and mutant phenotypes (likelihood ratio >3) are highlighted in salmon and green. […] Scatter plots show drug sensitivity, quantified by the area under the titration curves (AUC), for EGFR-targeting drugs as a function of MPS (expressed as likelihood ratio). Cell lines resembling an EGFR mutated and WT phenotypes are highlighted in green (likelihood ratio >3) and salmon boxes, respectively. Green dots indicate cell lines harboring nonsilent mutations. Solid and doted horizontal lines indicate the mean and 2.33 standard deviation over the mean of the chemoresistant cell lines, respectively. […] Violin plots show the probability density for drug sensitivity (AUC) of the cell lines showing an EGFR WT (green) or mutant (brown) phenotype according to MPS; horizontal lines indicate distribution means, which were contrasted by Student t-test (P values in insets).

[1] = EGFR-mutated cell lines with MPS>0.5
[2] = cell lines with low EGFR MPS (<−0.5) that yet harbored EGFR mutations

SMILES | cell lines observed to be sensitive to the drug (sensitive/total) [1] | cell lines observed to be sensitive to the drug (sensitive/total) [2] | fraction of cell lines responding to EGFR inhibitors | fraction of cell lines responding to EGFR inhibitors (EGFR WT cell lines with MPS<−0.5) | fraction of cell lines responding to EGFR inhibitors (EGFR WT cell lines with MPS>0.5)
C#Cc1cccc(Nc2ncnc3cc(OCCOC)c(OCCOC)cc23)c1 [erlotinib] | 5/6 | 1/2 | – | – | –
CS(=O)(=O)CCNCc1ccc(-c2ccc3ncnc(Nc4ccc(OCc5cccc(F)c5)c(Cl)c4)c3c2)o1 [lapatinib] | 4/6 | 1/2 | 36% and 27% | – | –
CN1CCN(CCOc2cc(OC3CCOCC3)c3c(Nc4c(Cl)ccc5c4OCO5)ncnc3c2)CC1 [AZD0530, saracatinib] | 5/6 | 0/2 | – | 33% | 50%
